One data set deals with HCT116 and PANC1. The data set can be described thus: toxicity against the cell lines in the absence of TNF. Particulars: 0 ng/mL TNF, up to concentrations of 10 uM. The format is cell-based. How it is done:
Typically, those compounds of Formula (I) tested were less toxic against the cell lines than the prior art compound PY1 when tested (eg, in the absence of TNF), especially against the human cell lines such as HCT116 (data not shown).
(§1) Cell viability of HCT116 tumour cells was measured using the CellTiter-Glo (CTG) luminescent cell viability assay (Promega, Madison, USA) according to the manufacturer's protocol. In short, 1×10^3 HCT116 cells were seeded in a 384-well plate for 24 h and subsequently treated with different concentrations of compounds and 10 ng/ml rHuTNF for 72 h at 37° C. and 5% CO2. After incubation, CTG reagent was added to the wells and cells were lysed for 10 min. Read-out was performed using the Tecan reader with 0.1 sec counting time. TNF-induced cell killing in human PANC1 and murine MC38 tumour cells was measured analogously to the assay in human HCT116 cells, except that for the PANC1 assay 100 ng/ml rHuTNF and for the MC38 assay 100 ng/ml rMuTNF were used.

The target of the next data set is SIK2 (Homo sapiens, UniProt Q9H0K1). The experiment in a line: radiometric protein kinase assay (33PanQinase Activity Assay), SIK2. As to conditions: for IC50: ATP 1.0 μM, substrate RBER-CHKtide; for inhibiting SIK2 compared to PY1: in words. In kind it is biochemical. How it is done:
(§2) The IC50s of the compounds against the SIK family of protein-serine/threonine kinases (SIK2 and SIK3) were determined as followed. Briefly, a radiometric protein kinase assay (33PanQinase® Activity Assay) was used for measuring the kinase activity of the two protein kinases. The kinase assays were performed in 96-well FlashPlates™ from PerkinElmer (Boston, Mass., USA) in a 50 uL reaction volume. The reaction cocktail was pipetted in four steps in the following order: • […] (standard buffer/[gamma-33P]-ATP) • 10 uL of ATP solution (in water) • 5 uL of test compound (in 10% DMSO) • 20 uL enzyme/substrate mix
(§3) The following amounts of enzyme and applicable substrate were used per well:
(§4) The reaction cocktails were incubated at 30 °C for 60 minutes. The reaction was stopped with 50 uL of 2% (v/v) H3PO4, plates were aspirated and washed two times with 200 μL 0.9% (w/v) NaCl. Incorporation of 33Pi was determined with a microplate scintillation counter (Microbeta, Wallac). All assays were performed with a BeckmanCoulter/SAGIAN™ Core System.

The target in data set [1] is 335 wild-type protein kinases. The data set can be described thus: single-point inhibition assays, residual activity (ProQinase Kinase Profiler). In kind it is biochemical. As to conditions: single-point 0.1 uM and 1 uM, 335 kinases. How it is done:
Several compounds of Formula (I) described herein were also tested in single-point (0.1 uM and 1 uM) inhibition assays over a diverse set of 335 wild-type protein (ProQinase “Kinase Profiler”; ProQinase, Freiburg, Germany), in which the residual activity of each kinase was determined. […] Secondly, the residual activity of each kinase was compared to other compounds tested (in particular, against the prior art compounds PY1) by use of scatter plots.

A further data set addresses SIK3 (Homo sapiens, UniProt Q9Y2K2). The experiment in a line: radiometric protein kinase assay (33PanQinase Activity Assay), SIK3. As to conditions: for IC50: ATP 1.0 μM, substrate RBER-CHKtide; for inhibiting SIK3 compared to PY1: in words. In kind it is biochemical. How it is done: as §2, §3, §4
A short description of data set [2]: Mouse liver microsomal stability. Particulars: pH 7.4; mouse liver microsomes, NADPH, 37°C. In kind it is in vitro ADME. How it is done:
(§5) Briefly, human and liver microsomal stability was determined by pre-incubation of 2.5 uL compound and 75 uL of the respective liver microsomes in potassium phosphate buffer (pH 7.4) at 37° C. After adding of NADPH as cofactor and further incubation at 37° C. for 60 min, acetonitrile containing internal standard was added, and the sample was vortexed for 5 min at 1200 rpm and then centrifuged 10 min at 4000 rpm.
(§6) LC-MS/MS was performed for all assays using a C18 column (50*4.6 mm, 5 um) for the CaCo2 assay, or a C18 column (50*4.6 mm, 4 um) for the other assays. The mobile phases used were 10 mM Ammonium Acetate with 0.1% Formic acid (aqueous) and 100% Acetonitrile (organic).
For orientation: Microsomes from liver hold many membrane-bound enzymes, among them those of drug oxidation.

The nature of data set [3]: Human plasma-protein binding (RED method). In kind it is in vitro ADME. As to the method: (§7) Human and mice protein plasma binding was determined using the Plasma Protein Binding by RED Method. Briefly, 200 uL of the respective plasma containing the test compound (10 uM) was spiked into the donor well (RED Chamber) of the insert. 350 uL of PBS was spiked into receiver well (white chamber). The plate was incubated at 37° C. in a thermomixer at 400 rpm for 5 hours. The samples were matrix equilibrated with opposite matrix (25 uL blank buffet/Plasma). Matrix matched samples were precipitated with 200 uL of Acetonitrile containing Internal standard. Samples were vortexed at 1000 rpm for 5 min and centrifuged at 4000 rpm for 10 min. The supernatant was diluted 2 folds with water and % bound and unbound protein and % recovery at 5 h was determined by LC-MS/MS.
as §6

The nature of data set [4]: Human hepatocyte stability. The format is in vitro ADME. Particulars: human hepatocytes, 37°C. As to the method:
(§8) Determination of human and mice hepatocyte stability was conducted as follows. 200 uL of the respective hepatocyte cell suspension (2×10e6/ml) was preincubated at 37° C. for 10 min. Then, 200 uL of a 2 uM working stock of the test compound was added to the hepatocyte cell suspension, and the mixture was further incubated at 37° C. and 500 rpm. The reaction was stopped at 30, 60 and 120 min by precipitating 50 uL of the incubation mixture with 200 uL of acetonitrile. Samples were vortexed for 5 min at 1200 rpm and centrifuged at 4000 rpm for 10 min. Intrinsic clearance and half-life were analysed using LC-MS/MS.
as §6

Data set [5] can be described thus: CaCo2 permeability and efflux assay. The format is in vitro ADME. As to conditions: human, Caco-2; CaCo2, mean efflux ratio. As to the method:
(§9) To determine apparent permeability of the compounds an assay using a Caco-2 cells monolayer (cultured for 21d) in a 24-well format (poly carbonate high pore density plate with 0.4 μm pore size and a 0.7 cm2 active membrane area; Millipore) was performed as followed. 800 uL of DMEM was added to the basal compartment of the 24 well-plate and 60000 CaCo2 cells/well were seeded in the apical wells and incubated in a CO2 incubator at 37° C. for proliferation of cells. Apical to Basal permeability was determined by adding 400 uL of test compound to the apical well and 800 uL of HBSS buffer with 2% BSA to the basal well. 25 uL of basal sample was collected after 120 min and processed as stated below. Basal to Apical permeability was determined by adding 800 uL of test compound to basal well and 400 uL of HBSS buffer with 2% BSA to apical well. 25 uL of apical sample was collected after 120 min and processed as stated below. The samples were processed by diluting the donor samples 1:1 with HBSS containing 2% BSA and the receiver samples 1:1 with HBSS buffer. Samples were then precipitated with 200 uL of acetonitrile containing internal standard, vortexed for 5 min at 1000 rpm, and centrifuged at 4000 rpm for 20 min. 150 uL of supernatant was diluted with 150 uL of water and submitted for LC-MS/MS analysis, and Bi-directional (A-B and B-A) apparent permeability (Papp) was calculated.
as §6

Another data set has as its system Caco-2 cells monolayer. The experiment in a line: CaCo2 permeability and efflux assay. The format is in vitro ADME. Particulars: CaCo2, apical to basal, 120 min. As to the method: as §9, §6
A general note: Caco-2 cells form a polarised layer with tight junctions and transporters.

Data set [6] in a line: Human liver microsomal stability. The format is in vitro ADME. As to conditions: pH 7.4; human liver microsomes, NADPH, 37°C. As to the method:
as §5, §6

Another data set can be described thus: Kinetic solubility assay. In kind it is physicochemical. Particulars: aqueous buffer, kinetic from dmso stock; PBS buffer pH 7.4, 1.0% DMSO, 24 h at RT. As to the method:
The Kinetic solubility assay was conducted as follows. 4 uL compound of the 50 mM DMSO stock was added to deep well plate containing 396 uL PBS buffer (pH 7.4). The DMSO content in the sample was 1.0%, and the compound concentration 500 μM. The sample plate was vortexed at 800 rpm for 24 h at RT on a thermomixer. At the end of the incubation period, the sample plate was centrifuged at 4000 rpm for 10 mins. 3 uL of supernatant was transferred to well containing 297 uL of ISTD in Acetonitrile water:50:50, v/v and analysed in LC-MS/MS against a calibration curve (CC).

Data set [7] can be described thus: Mouse hepatocyte stability. The format is in vitro ADME. Particulars: mouse hepatocytes, 37°C. How it is done:
as §8, §6

Data set [8] in a line: Murine plasma protein binding (RED method). In kind it is in vitro ADME. As to conditions: mouse. How it is done: as §7, §6
In another data set the test system is MC38 tumour cells. The experiment in a line: TNF-sensitised cell viability assay (CellTiter-Glo), MC38. Particulars: Mus musculus, MC-38, read-out: MC38 IC50 (at 100 ng/ml rMuTNF); 100 ng/ml rMuTNF, 72 h. In kind it is cell-based, murine. How it is done:
as §1
(Cellular ATP, detected with luciferase, serves as a proxy for viable cell number.)

Molecules are shown by their SMILES. ≈ marks a conversion by molar mass, not a printed value. Entries after “also recorded” stand apart in the source; their conditions may differ.

SIK3, sequence (Q9Y2K2 whole entry): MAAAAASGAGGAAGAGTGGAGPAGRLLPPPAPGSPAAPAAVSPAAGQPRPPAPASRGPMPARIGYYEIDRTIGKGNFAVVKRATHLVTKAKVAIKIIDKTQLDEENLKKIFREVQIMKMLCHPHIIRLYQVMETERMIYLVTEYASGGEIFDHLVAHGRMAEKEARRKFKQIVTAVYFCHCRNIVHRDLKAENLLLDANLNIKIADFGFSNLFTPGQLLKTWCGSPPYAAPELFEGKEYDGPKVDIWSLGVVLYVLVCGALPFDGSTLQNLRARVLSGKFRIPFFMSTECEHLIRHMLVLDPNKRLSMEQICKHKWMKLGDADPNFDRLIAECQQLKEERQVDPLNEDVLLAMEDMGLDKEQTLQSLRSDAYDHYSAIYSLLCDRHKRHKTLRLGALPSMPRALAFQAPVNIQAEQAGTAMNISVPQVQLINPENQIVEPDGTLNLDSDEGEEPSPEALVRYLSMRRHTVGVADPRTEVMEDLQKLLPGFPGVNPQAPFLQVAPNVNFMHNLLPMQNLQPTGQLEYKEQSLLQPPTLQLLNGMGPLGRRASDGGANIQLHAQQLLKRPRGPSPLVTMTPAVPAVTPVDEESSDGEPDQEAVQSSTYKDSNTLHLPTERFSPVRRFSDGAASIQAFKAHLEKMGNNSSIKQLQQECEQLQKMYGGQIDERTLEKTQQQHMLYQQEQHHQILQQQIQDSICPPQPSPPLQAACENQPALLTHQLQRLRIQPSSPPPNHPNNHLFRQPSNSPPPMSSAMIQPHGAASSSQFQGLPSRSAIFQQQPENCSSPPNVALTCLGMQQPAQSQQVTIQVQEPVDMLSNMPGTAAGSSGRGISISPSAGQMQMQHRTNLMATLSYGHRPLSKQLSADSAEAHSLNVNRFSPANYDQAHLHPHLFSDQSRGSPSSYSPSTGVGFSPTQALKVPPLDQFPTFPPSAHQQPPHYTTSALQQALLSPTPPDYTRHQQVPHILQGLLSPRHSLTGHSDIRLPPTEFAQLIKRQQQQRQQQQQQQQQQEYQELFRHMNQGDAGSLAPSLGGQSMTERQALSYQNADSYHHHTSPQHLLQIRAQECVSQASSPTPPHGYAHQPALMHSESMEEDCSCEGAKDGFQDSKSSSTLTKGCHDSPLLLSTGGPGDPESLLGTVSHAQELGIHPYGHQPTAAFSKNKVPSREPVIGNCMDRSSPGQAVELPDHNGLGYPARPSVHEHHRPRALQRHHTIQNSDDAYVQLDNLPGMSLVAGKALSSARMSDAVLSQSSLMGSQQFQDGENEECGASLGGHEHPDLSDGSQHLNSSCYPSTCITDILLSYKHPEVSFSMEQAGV
SIK2, sequence (Q9H0K1 whole entry): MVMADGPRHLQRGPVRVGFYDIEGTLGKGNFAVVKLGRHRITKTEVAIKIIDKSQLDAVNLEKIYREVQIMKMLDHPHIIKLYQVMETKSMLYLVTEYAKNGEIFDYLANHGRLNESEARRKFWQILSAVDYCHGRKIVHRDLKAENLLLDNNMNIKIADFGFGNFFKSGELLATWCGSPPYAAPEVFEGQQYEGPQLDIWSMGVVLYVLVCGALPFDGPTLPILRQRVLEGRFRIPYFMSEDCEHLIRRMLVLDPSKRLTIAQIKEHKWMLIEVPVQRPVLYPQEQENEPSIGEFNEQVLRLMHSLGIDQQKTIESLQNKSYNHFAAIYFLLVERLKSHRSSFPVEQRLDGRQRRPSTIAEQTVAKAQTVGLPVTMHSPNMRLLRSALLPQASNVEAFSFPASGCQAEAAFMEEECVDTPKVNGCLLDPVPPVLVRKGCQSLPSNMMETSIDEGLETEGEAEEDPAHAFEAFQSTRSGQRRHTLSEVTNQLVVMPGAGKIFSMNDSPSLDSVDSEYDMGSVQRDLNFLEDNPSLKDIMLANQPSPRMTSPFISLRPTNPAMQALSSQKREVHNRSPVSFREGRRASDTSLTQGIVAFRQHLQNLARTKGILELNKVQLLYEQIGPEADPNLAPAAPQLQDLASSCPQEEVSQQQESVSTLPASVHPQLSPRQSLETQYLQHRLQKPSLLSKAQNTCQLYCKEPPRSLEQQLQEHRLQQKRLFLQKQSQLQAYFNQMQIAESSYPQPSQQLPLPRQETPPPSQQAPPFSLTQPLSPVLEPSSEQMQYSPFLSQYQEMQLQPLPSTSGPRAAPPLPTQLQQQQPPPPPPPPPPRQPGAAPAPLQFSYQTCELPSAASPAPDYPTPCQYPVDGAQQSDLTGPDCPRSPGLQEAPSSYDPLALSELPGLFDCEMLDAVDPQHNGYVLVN

As for `COc1ccc(N2C(=O)N(c3c(C)noc3C)Cc3cnc(Nc4ccc(C5CCN(C)CC5)cc4OC)nc32)nc1` [AA5, 3-(3,5-dimethylisoxazol-4-yl)-7-((2-methoxy-4-(1-methylpiperidin-4-yl)phenyl)amino)-1-(5-methoxypyridin-2-yl)-3,4-dihydropyrimido[4,5-d]pyrimidin-2(1H)-one], the “toxicity against the cell lines in the absence of TNF” value with HCT116 and PANC1 is listed as “essentially non-toxic”. The IC50 at SIK2 fell in the range of 400 to 800 nM. For the same compound, in data set [1], the “kinases inhibited less strongly than by PY1” value is “FYN, BTK, EPHB2, LCK and CSK”; the “overall kinase profile compared to prior art compound PY1” value is “potently inhibited far fewer kinases than prior art compound PY1”; the “relevant kinases still potently inhibited” value is “TXK, ERBB4, EPHB1, FRK, BRK, EPHA4, ACK1, EGFR, EPHA1 and SIK1; also recorded: reasonably potent against CSF1R”. The same compound came in with an IC50 on SIK3 of 800 to 1000 nM.

For orientation: half-life means the time needed for the level to fall by half in the phase considered. A high value points to slow decline. One may read the efflux ratio as a quotient of directional permeabilities that is used to spot active efflux. A word on the kinetic solubility: it is solubility judged after dilution from a stock solution rather than from solid. As for `COc1ccc(N2C(=O)N(c3c(C(F)F)csc3Cl)Cc3cnc(Nc4ccc(C5CCN(C)CC5)cc4)nc32)nc1` [AA2, 3-(2-chloro-4-(difluoromethyl)thiophen-3-yl)-l-(5-methoxypyridin-2-yl)-7-((4-(l-methylpiperidin-4-yl)phenyl)amino)-3,4-dihydropyrimido[4,5-d]pyrimidin-2(1H)-one], the values for the half-life in [2] and in [6] were 10 min and 12 min, respectively. For the same compound, the recovery at 5 h, 10 uM in data set [3] worked out at 32%; in data set [8], 38%. Further, the half-life at 1 uM in [4] came to 186 min; in data set [7] it was 82 min. Besides, the efflux ratio at 120 min in data set [5] stood at 2.7. Further, the “A > B(10 EE-06 cm/s)” value in the data set on Caco-2 cells monolayer is 12.9 10 EE-06 cm/s. This compound also yielded a solubility (kinetic) at 24 h in the data set “Kinetic solubility assay” of 9.1 µM (≈ 5.57 µg/mL). Besides, the figures for the IC50 against SIK2, with MC38 tumour cells and on SIK3 were below 50 nM, 0.5 to 1 µM and below 50 nM, respectively. Also, the “inhibiting SIK2 compared to PY1” value against SIK2 was “superior in inhibiting SIK2 and SIK3 compared to PY1”. Besides, the “inhibiting SIK3 compared to PY1” value against SIK3 is “superior in inhibiting SIK2 and SIK3 compared to PY1”.

For the compound `COc1ccc(N2C(=O)N(c3c(CF)csc3Cl)Cc3cnc(Nc4ccc(C5CCN(C)CC5)cc4)nc32)nc1` [AA3, 3-(2-chloro-4-(fluoromethyl)thiophen-3-yl)-l-(5-methoxypyridin-2-yl)-7-((4-(l-methylpiperidin-4-yl)phenyl)amino)-3,4-dihydropyrimido[4,5-d]pyrimidin-2(1H)-one], the half-life in data set [2] was found to be 20 min; in [6], 16 min. The recovery at 5 h, 10 uM in data set [3] was found to be 34%; in data set [8], 45%. Also, the half-life at 1 uM in data set [4] is 42 min; in [7], 108 min. Moreover, the efflux ratio at 120 min in [5] was determined as 2.9. Further, the “A > B(10 EE-06 cm/s)” value in the data set with Caco-2 cells monolayer is given as 8.4 10 EE-06 cm/s. The same compound had a kinetic solubility at 24 h in “Kinetic solubility assay” of 9.1 µM (≈ 5.41 µg/mL). Further, the IC50 at SIK2 is below 50 nM; with MC38 tumour cells it was 0.5 to 1 µM; at SIK3, below 50 nM. For the same compound, on SIK2, the “inhibiting SIK2 compared to PY1” value was “superior in inhibiting SIK2 and SIK3 compared to PY1”. Besides, the “kinases inhibited less strongly than by PY1” value in data set [1] was “SRMS, NLK, RIPK5, LTK and ALK”. Also, in data set [1], the “kinases inhibited more strongly than by PY1” value is “TAOK2, SYK, TYRO3, ACVR2B, MEKK2, AXL, ITK, MAP3K11, TRKA, MERTK, ZAP70, and MEKK2, and in particular CSF1R, HCK, TXK, YES, LCK, SRC, EPHA1 and FGR”. In addition, the “overall kinase profile compared to prior art compound PY1” value in data set [1] is “potent inhibitor of surprisingly more kinases than prior art compound PY1”. Also, the “inhibiting SIK3 compared to PY1” value against SIK3 was “superior in inhibiting SIK2 and SIK3 compared to PY1”.

For the origin of these results see patent US20230192701A1, “BICYCLIC KINASE INHIBITORS AND USES THEREOF” (iOmx Therapeutics AG, priority 2020, published 2023).
